Columns and labels:
[1] = system: superoxide anion (—O2^−) generation in coronary adventitia; experiment: —O2^− production in uninjured coronary adventitia (SOD-inhibitable NBT reduction); type: cell-based, pigs; conditions: uninjured coronary adventitia; DETCA 10 mM
Procedure: (§1) The production of —O2^− is measured by superoxide dismutase- (SOD) or tiron-inhibitable conversion of nitroblue tetrazolium (NBT) to formazan. (20,21)
(§2) —O2^− production in coronary arteries: Coronary arteries are dissected free from adipose tissue and myocardium and then cut into ˜5 mm rings and placed in 24-well plates. Tissues are balanced in phenol-free DMEM at 37° C. in a CO2 incubator for 30 minutes with or without addition of SOD (SOD, 1000 unit/ml) or tiron (10 mM), both scavengers of —O2^− Freshly made NBT (100 mg/L in phenol-free DMEM) is added to the tissues with a gentle rocking for 3 hours. The reaction is terminated by addition of equal volume of 0.5N HCl, and tissues are rinsed twice with cold PBS. To extract formazan, tissues are pulverized in liquid nitrogen and dissolved in 100% pyridine at 80° C. for 30 minutes. After centrifugation, light absorbance is read in supernatants at 540 nm. The NBT reduction to formazan is calculated using the following formula: NBT reduction=A×V/(T×E×L) (A: absorbance; V: volume of solubilizing solution; T: time of incubation with NBT (minutes); E: extinction coefficient=0.72 mmol.mm; L: length of light travel through the solution, 10 mm). Either SOD- or tiron-inhibitable NBT reduction is calculated as measures of —O2^− production (pmol/min/mg wet weight). To determine the pathways mediating —O2^− production, several inhibitors are used in the experiments, including diphenyleneiodonium (DPI, 100 μM), rotenone (ROT, 50 μM), oxypurinol (OXY, 300 μM), N^ω-nitro-L-arginine methyl ester (L-NAME, 1 mM), and diethyldithio-carbamic acid (DETCA, 10 mM). The n value represents the number of vascular rings obtained from at least 3 animals per experimental condition.

[2] = system: superoxide anion (—O2^−) generation in coronary media; experiment: —O2^− production in uninjured coronary media (SOD-inhibitable NBT reduction); type: cell-based, pigs; conditions: DETCA 10 mM
Procedure: as §1
as §2, with “To determine the pathways mediating —O2^− production, several inhibitors are used in the experiments, including diphenyleneiodonium (DPI, 100 μM), rotenone (ROT, 50 μM), oxypurinol (OXY, 300 μM), N^ω-nitro-L-arginine methyl ester (L-NAME, 1 mM), and diethyldithio-carbamic acid (DETCA, 10 mM). The n value represents the number of vascular rings obtained from at least 3 animals per experimental condition.” left out

CCN(CC)C(=S)S [DETCA, diethyldithio-carbamic acid]
—O2^− generation in adventitia with SOD inhibitor [1]: 19.6 ± 2.5 pmol/mg/min | —O2^− generation in media with SOD inhibitor [2]: 36.3 ± 8.2 pmol/mg/min

— patent US20020022022A1, “Inhibition of cell proliferation and matrix synthesis by antioxidants and NAD(P)H oxidase inhibitors” (priority 2000, published 2002)
